Among the data in US11407721B2, “CIS-morpholinone and other compounds as MDM2 inhibitors for the treatment of cancer” (AMGEN INC., priority 2013, dated 2022) are IC50 values, retold here.

Experiment [1] concerns the target interaction between HDM2 and p53 (GST-hMDM2 / biotinylated-p53) (Homo sapiens (Human), UniProt Q00987). Put plainly: biochemical.
Experiment [2] addresses interaction between HDM2 and p53 (GST-hMDM2 (1-188) / biotinylated-p53 (1-83)) (Homo sapiens (Human), UniProt Q00987). The experiment in a line: HTRF2 Assay (improved HTRF assay). The format is binding. (In general: In TR-FRET formats the signal depends on donor and acceptor labels being close together.)
Setting [3] is: 0.2 nM GST-hMDM2 (1-188), 0.5 nM biotinylated-p53 (1-83), 100 mM KF, read-out: HTRF2 IC50.

pIC50: −log10 of the molar value. Like-named read-outs stand apart in the source and are kept apart here.

Chain of interaction between HDM2 and p53 (GST-hMDM2 / biotinylated-p53) (Q00987 1-188): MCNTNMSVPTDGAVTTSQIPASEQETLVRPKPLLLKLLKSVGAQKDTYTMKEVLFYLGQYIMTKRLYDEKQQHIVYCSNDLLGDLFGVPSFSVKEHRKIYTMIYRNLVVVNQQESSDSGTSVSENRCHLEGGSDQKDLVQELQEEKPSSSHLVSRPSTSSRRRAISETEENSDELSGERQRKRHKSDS
Chain of interaction between HDM2 and p53 (GST-hMDM2 (1-188) / biotinylated-p53 (1-83)) (Q00987 1-188): as above

For orientation: pIC50 means the negative decadic logarithm of the IC50, by convention in mol/L. In experiment [1], `CCN1C(=O)CO[C@H](c2ccc(Br)cc2)[C@@H]1c1ccc(Br)cc1` [(5S,6R)-5,6-bis(4-bromophenyl)-4-ethyl-3-morpholinone] had a pIC50 of 4.37.
For `O=C1CO[C@@H](c2ccc(Cl)cc2)[C@@H](c2ccc(Cl)cc2)N1c1cccnc1` [(5R,6S)-5,6-bis(4-chlorophenyl)-4-(3-pyridinyl)-3-morpholinone], the pIC50 in experiment [1] was 4.62; in experiment [2] (setting [3]) it was 4.53.
For `CCC[C@H](COC(N)=O)N1C(=O)CO[C@@H](c2ccc(Cl)cc2)[C@H]1c1ccc(Cl)cc1` [(2R)-2-((2S,3R)-2,3-bis(4-chlorophenyl)-5-oxo-4-morpholinyl)pentyl carbamate], the pIC50 in experiment [1] is 5.43; in experiment [2] (setting [3]) it was 5.44.
Consider `O=C1CO[C@@H](c2cccc(Cl)c2)[C@@H](c2ccc(Cl)cc2)N1C1CCCC1` [(5R,6S)-6-(3-chlorophenyl)-5-(4-chlorophenyl)-4-cyclopentyl-3-morpholinone], for which the results for the negative logarithm of the IC50 (pIC50) in experiment [1] and in experiment [2] (setting [3]) were 4.78 and 5.00, respectively.
With `CCC[C@H](c1nnn[nH]1)N1C(=O)[C@H](Cc2ccc(I)cc2)O[C@@H](c2ccc(Cl)cc2)[C@H]1c1ccc(Cl)cc1` (racemic) [Example 36, (2S,5R,6S)-4-((R)-1-(1H-Tetrazol-5-yl)butyl)-5,6-bis(4-chlorophenyl)-2-(4-iodobenzyl)morpholin-3-one and (2R,5S,6R)-4-((S)-1-(1H-tetrazol-5-yl)butyl)-5,6-bis(4-chlorophenyl)-2-(4-iodobenzyl)morpholin-3-one], in experiment [1], the pIC50 is 6.29.
As for `C[C@H]1O[C@@H](c2ccc(Br)cc2)[C@@H](c2ccc(Br)cc2)N(C)C1=O` [(2R,5R,6S)-5,6-bis(4-bromophenyl)-2,4-dimethyl-3-morpholinone], the pIC50 in experiment [1] was 4.33.
As to `C=CC[C@H]1O[C@H](c2ccc(Br)cc2)[C@H](c2ccc(Br)cc2)N(C)C1=O` [(2R,5S,6R)-5,6-bis(4-bromophenyl)-4-methyl-2-(2-propen-1-yl)-3-morpholinone], the pIC50 in experiment [1] is 4.63; in experiment [2] (setting [3]) it was 4.60.
On the same counts, the results for `CC(C)N1C(=O)CO[C@H](c2ccc(Br)cc2)[C@@H]1c1ccc(Br)cc1` [(5S,6R)-5,6-bis(4-bromophenyl)-4-(1-methylethyl)-3-morpholinone] are 4.61 and under 4.00.
On the same counts, the results for `C[C@@H]1O[C@@H](c2ccc(Br)cc2)[C@@H](c2ccc(Br)cc2)N(C)C1=O` [(2S,5R,6S)-5,6-bis(4-bromophenyl)-2,4-dimethyl-3-morpholinone] are 4.63 and 4.64.
Take `CN1C(=O)/C(=C/c2cccnc2)O[C@H](c2ccc(Cl)cc2)C1c1ccc(Cl)cc1` (mixture of isomers) [Example 39, (5S,6R,Z)-5,6-Bis(4-chlorophenyl)-4-methyl-2-(pyridin-3-ylmethylene)morpholin-3-one and (5R,6S,Z)-5,6-bis(4-chlorophenyl)-4-methyl-2-(pyridin-3-ylmethylene)morpholin-3-one]: the pIC50 is 4.98 in experiment [1] and 5.18 in experiment [2] (setting [3]).
For the compound `O=C1CN(Cc2ccccc2)[C@H](c2ccc(Br)cc2)[C@H](c2ccc(Br)cc2)N1` [(5R,6S)-5,6-bis(4-bromophenyl)-4-(phenylmethyl)-2-piperazinone], in experiment [1], the negative-log IC50 (pIC50) was 4.07.
Still for that read-out and setting: the same measure for `CN1C(=O)[C@H](O)O[C@@H](c2ccc(Cl)cc2)[C@H]1c1ccc(Cl)cc1` [(2R,5R,6S)-5,6-bis(4-chlorophenyl)-2-hydroxy-4-methyl-3-morpholinone]: 4.17; for `O=C1CO[C@@H](c2ccc(Br)cc2)[C@@H](c2ccc(Br)cc2)N1C1CC1` [(5R,6S)-5,6-bis(4-bromophenyl)-4-cyclopropyl-3-morpholinone]: 4.42.
For `CCCC[C@H](C(=O)O)N1C(=O)CO[C@@H](c2ccc(Cl)cc2)[C@H]1c1ccc(Cl)cc1` [(2R)-2-((2S,3R)-2,3-bis(4-chlorophenyl)-5-oxo-4-morpholinyl)hexanoic acid], the negative-log IC50 (pIC50) was 4.56 in experiment [1] and 4.63 in experiment [2].
In the case of `CN1C(=O)CN(Cc2ccccc2)[C@H](c2ccc(Br)cc2)[C@@H]1c1ccc(Br)cc1` [(5R,6S)-5,6-bis(4-bromophenyl)-1-methyl-4-(phenylmethyl)-2-piperazinone], in experiment [1], the pIC50 was 4.14.
Take `O=C1CO[C@@H](c2ccc(Cl)cc2)[C@@H](c2ccc(Cl)cc2)N1CC1CC1` [(5R,6S)-5,6-bis(4-chlorophenyl)-4-(cyclopropylmethyl)-3-morpholinone]: the negative logarithm of the IC50 (pIC50) in experiment [1] was 4.38.
Take `CC[C@H](C(=O)O)N1C(=O)CO[C@H](c2ccc(Cl)cc2)[C@@H]1c1ccc(Cl)cc1` [(2R)-2-((2R,3S)-2,3-bis(4-chlorophenyl)-5-oxo-4-morpholinyl)butanoic acid]: the pIC50 in experiment [1] was 4.40.
Take `CCC[C@H](C(=O)NCC(=O)O)N1C(=O)[C@H](Cc2ccc(C#N)c(F)c2)O[C@@H](c2ccc(Cl)cc2)[C@H]1c1ccc(Cl)cc1` [N-((2R)-2-((2S,3R,6S)-2,3-bis(4-chlorophenyl)-6-(4-cyano-3-fluorobenzyl)-5-oxo-4-morpholinyl)pentanoyl)glycine]: the pIC50 in experiment [1] is 6.41; in experiment [2], 6.29.
With `C[C@H](C(=O)O)N1C(=O)CO[C@H](c2ccc(Cl)cc2)[C@@H]1c1ccc(Cl)cc1` [(2R)-2-((2R,3S)-2,3-bis(4-chlorophenyl)-5-oxo-4-morpholinyl)propanoic acid], in experiment [1], the pIC50 was 4.21.
For `O=C1CO[C@@H](c2ccc(Cl)cc2)[C@@H](c2ccc(Cl)cc2)N1c1ccncc1` [(5R,6S)-5,6-bis(4-chlorophenyl)-4-(4-pyridinyl)-3-morpholinone], the pIC50 was 4.62 in experiment [1] and 4.77 in experiment [2] (setting [3]).
With `O=C1[C@H](C[C@H](O)CO)O[C@@H](c2cccc(Cl)c2)[C@@H](c2ccc(Cl)cc2)N1CC1CC1` (racemic) [Example 14, Step B], the values for the pIC50 in experiment [1] and in experiment [2] (read-out: HTRF2 IC50) were 5.33 and 5.44, respectively.
Turning to `CN1C(=O)[C@@H](c2ccccc2)O[C@H](c2ccc(Br)cc2)[C@@H]1c1ccc(Br)cc1` [(2R,5S,6R)-5,6-bis(4-bromophenyl)-4-methyl-2-phenyl-3-morpholinone], the pIC50 in experiment [1] is 4.91; in experiment [2] (setting [3]), 4.70.
Consider `CCCC[C@H](C(=O)O)N1C(=O)CO[C@H](c2ccc(Cl)cc2)[C@@H]1c1ccc(Cl)cc1` [(2R)-2-((2R,3S)-2,3-bis(4-chlorophenyl)-5-oxo-4-morpholinyl)hexanoic acid], for which the pIC50 in experiment [1] is 4.48.
As to `O=C1CO[C@@H](c2ccc(Cl)cc2)[C@@H](c2ccc(Cl)cc2)N1c1ccccc1` [(5R,6S)-5,6-bis(4-chlorophenyl)-4-phenyl-3-morpholinone], the values for the pIC50 in experiment [1] and in experiment [2] (setting [3]) were under 4.00 and 4.50, respectively.
On the same counts, the results for `CCC[C@@H](C(=O)O)N1C(=O)[C@@H](Cc2ccncc2)O[C@H](c2ccc(Cl)cc2)C1c1ccc(Cl)cc1` (mixture of isomers) [Example 42, (S)-2-((2R,3S,6R)-2,3-Bis(4-chlorophenyl)-5-oxo-6-(pyridin-4-ylmethyl)morpholino)pentanoic acid and (R)-2-((2S,3R,6S)-2,3-bis(4-chlorophenyl)-5-oxo-6-(pyridin-4-ylmethyl)morpholino)pentanoic acid] are 6.27 and 6.02.
As for `O=CC[C@@H]1O[C@@H](c2cccc(Cl)c2)[C@@H](c2ccc(Cl)cc2)N(CC2CC2)C1=O` (racemic) [Example 15, (2-((2S,5R,6S)-6-(3-Chlorophenyl)-5-(4-chlorophenyl)-4-(cyclopropylmethyl)-3-oxomorpholin-2-yl)acetaldehydeacetaldehyde and (2-((2R,5S,6R)-6-(3-chlorophenyl)-5-(4-chlorophenyl)-4-(cyclopropylmethyl)-3-oxomorpholin-2-yl)acetaldehydeacetaldehyde], the results for the pIC50 in experiment [1] and in experiment [2] (read-out: HTRF2 IC50) were 5.40 and 5.48, respectively.
For `CN1C(=O)[C@@H](CC(N)=O)O[C@H](c2ccc(Cl)cc2)[C@@H]1c1ccc(Cl)cc1` [2-((2R,5S,6R)-5,6-bis(4-chlorophenyl)-4-methyl-3-oxo-2-morpholinyl)acetamide], the pIC50 in experiment [1] was 4.36.
Turning to `CCC[C@H](C(=O)O)N1C(=O)[C@H](Cc2ccc(C#N)c(F)c2)O[C@@H](c2ccc(Cl)cc2)[C@H]1c1ccc(Cl)cc1` [(2R)-2-((2S,3R,6S)-2,3-bis(4-chlorophenyl)-6-(4-cyano-3-fluorobenzyl)-5-oxo-4-morpholinyl)pentanoic acid], the pIC50 in experiment [1] is 6.35; in experiment [2] it was 6.27.
As for `CCC[C@H](C(N)=O)N1C(=O)CO[C@@H](c2ccc(Cl)cc2)[C@H]1c1ccc(Cl)cc1` [(2R)-2-((2S,3R)-2,3-bis(4-chlorophenyl)-5-oxo-4-morpholinyl)pentanamide], the pIC50 was 5.50 in experiment [1] and 5.37 in experiment [2] (setting [3]).
In the case of `CCC[C@H](CCC(=O)O)N1C(=O)CO[C@@H](c2ccc(Cl)cc2)[C@H]1c1ccc(Cl)cc1` [(4R)-4-((2S,3R)-2,3-bis(4-chlorophenyl)-5-oxo-4-morpholinyl)heptanoic acid], in experiment [2] (setting [3]), the pIC50 is 4.61.
Regarding `CCC[C@H](C(=O)O)N1C(=O)[C@H](Cc2ccc(C#N)cc2)O[C@@H](c2ccc(Cl)cc2)[C@H]1c1ccc(Cl)cc1` [(2R)-2-((2S,3R,6S)-2,3-bis(4-chlorophenyl)-6-(4-cyanobenzyl)-5-oxo-4-morpholinyl)pentanoic acid], the pIC50 in experiment [1] is 6.53; in experiment [2], 6.41.
As to `CCC[C@H](C(=O)O)N1C(=O)[C@H](Cc2ccc(F)cc2C#N)O[C@@H](c2ccc(Cl)cc2)[C@H]1c1ccc(Cl)cc1` [Example 45, (R)-2-((2S,3R,6S)-2,3-Bis(4-chlorophenyl)-6-(2-cyano-4-fluorobenzyl)-5-oxomorpholino)pentanoic acid], the pIC50 in experiment [2] (setting [3]) is 6.33.
